This is an account of results in patent publication US20250163056A1, “NONMUSCLE MYOSIN II INHIBITORS” (The University of Florida Research Foundation, Inc., priority 2018, published 2025).

As a reminder, the Ki is a measure of affinity in units of concentration, obtained from inhibition or displacement.

For one data set, the target named is Bovine cardiac myosin (Bos taurus (Bovine), UniProt Q9BE39). The experiment in a line: Cardiac muscle myosin II actin-activated ATPase assay (NADH-coupled). The format is biochemical. Set-up: key to Ratio CMMII:NMII Ki/EC50: NMII-sel: no Ki value for cardiac myosin II could be determined; the compounds had no detectable inhibitory properties versus the cardiac myosin II. The following applies: for Ratio CMMII:NMII Ki/EC50: cardiac myosin II Ki over nonmuscle myosin II EC50; for Ki: 300 nM cardiac myosin, 10 μM actin, 25° C., read-out: CMMII KI. Summed up:
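NADH-coupled (PK/LDH) assay at 25° C: 300 nM bovine cardiac myosin, 10 μM rabbit F-actin, 1 mM ATP, 1 mM PEP, 220 μM NADH, MOPS pH 7.0, 0.5% DMSO. NADH fluorescence was followed for 30 min; Ki values came from 16-point triplicate data (top 50 uM) fitted to a quadratic one-to-one binding model.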

The next data set addresses Rabbit skeletal myosin. As to the kind of experiment: Skeletal muscle myosin II actin-activated ATPase assay. The following applies: 20 nM skeletal muscle myosin II; read-out: SKMMII KI. It counts as biochemical. Summed up: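 NADH-coupled (PK/LDH) actin-activated ATPase at 25 °C with 20 nM rabbit skeletal myosin II, 10 μM F-actin, 1 mM ATP, 1 mM PEP, 220 μM NADH in MOPS pH 7.0, MgCl2, EGTA, BSA, DTT, 0.5% DMSO. NADH fluorescence followed 30 min; inhibitory constants from 16-point triplicate curves (top 50 uM), quadratic one-to-one fit.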

The nature of data set [1]: Photostability, percentage remaining undegraded under illumination or in the dark. The settings on record: for Photostability 4 hours: percentage remaining undegraded after 4 hours illumination; for Photostability 24 hours: percentage remaining undegraded after 24 hours illumination; for Photostability Dark (24 h): percentage remaining undegraded in the dark.

Bounds are passed on as bounds.

Chain of Bovine cardiac myosin (Q9BE39 whole entry): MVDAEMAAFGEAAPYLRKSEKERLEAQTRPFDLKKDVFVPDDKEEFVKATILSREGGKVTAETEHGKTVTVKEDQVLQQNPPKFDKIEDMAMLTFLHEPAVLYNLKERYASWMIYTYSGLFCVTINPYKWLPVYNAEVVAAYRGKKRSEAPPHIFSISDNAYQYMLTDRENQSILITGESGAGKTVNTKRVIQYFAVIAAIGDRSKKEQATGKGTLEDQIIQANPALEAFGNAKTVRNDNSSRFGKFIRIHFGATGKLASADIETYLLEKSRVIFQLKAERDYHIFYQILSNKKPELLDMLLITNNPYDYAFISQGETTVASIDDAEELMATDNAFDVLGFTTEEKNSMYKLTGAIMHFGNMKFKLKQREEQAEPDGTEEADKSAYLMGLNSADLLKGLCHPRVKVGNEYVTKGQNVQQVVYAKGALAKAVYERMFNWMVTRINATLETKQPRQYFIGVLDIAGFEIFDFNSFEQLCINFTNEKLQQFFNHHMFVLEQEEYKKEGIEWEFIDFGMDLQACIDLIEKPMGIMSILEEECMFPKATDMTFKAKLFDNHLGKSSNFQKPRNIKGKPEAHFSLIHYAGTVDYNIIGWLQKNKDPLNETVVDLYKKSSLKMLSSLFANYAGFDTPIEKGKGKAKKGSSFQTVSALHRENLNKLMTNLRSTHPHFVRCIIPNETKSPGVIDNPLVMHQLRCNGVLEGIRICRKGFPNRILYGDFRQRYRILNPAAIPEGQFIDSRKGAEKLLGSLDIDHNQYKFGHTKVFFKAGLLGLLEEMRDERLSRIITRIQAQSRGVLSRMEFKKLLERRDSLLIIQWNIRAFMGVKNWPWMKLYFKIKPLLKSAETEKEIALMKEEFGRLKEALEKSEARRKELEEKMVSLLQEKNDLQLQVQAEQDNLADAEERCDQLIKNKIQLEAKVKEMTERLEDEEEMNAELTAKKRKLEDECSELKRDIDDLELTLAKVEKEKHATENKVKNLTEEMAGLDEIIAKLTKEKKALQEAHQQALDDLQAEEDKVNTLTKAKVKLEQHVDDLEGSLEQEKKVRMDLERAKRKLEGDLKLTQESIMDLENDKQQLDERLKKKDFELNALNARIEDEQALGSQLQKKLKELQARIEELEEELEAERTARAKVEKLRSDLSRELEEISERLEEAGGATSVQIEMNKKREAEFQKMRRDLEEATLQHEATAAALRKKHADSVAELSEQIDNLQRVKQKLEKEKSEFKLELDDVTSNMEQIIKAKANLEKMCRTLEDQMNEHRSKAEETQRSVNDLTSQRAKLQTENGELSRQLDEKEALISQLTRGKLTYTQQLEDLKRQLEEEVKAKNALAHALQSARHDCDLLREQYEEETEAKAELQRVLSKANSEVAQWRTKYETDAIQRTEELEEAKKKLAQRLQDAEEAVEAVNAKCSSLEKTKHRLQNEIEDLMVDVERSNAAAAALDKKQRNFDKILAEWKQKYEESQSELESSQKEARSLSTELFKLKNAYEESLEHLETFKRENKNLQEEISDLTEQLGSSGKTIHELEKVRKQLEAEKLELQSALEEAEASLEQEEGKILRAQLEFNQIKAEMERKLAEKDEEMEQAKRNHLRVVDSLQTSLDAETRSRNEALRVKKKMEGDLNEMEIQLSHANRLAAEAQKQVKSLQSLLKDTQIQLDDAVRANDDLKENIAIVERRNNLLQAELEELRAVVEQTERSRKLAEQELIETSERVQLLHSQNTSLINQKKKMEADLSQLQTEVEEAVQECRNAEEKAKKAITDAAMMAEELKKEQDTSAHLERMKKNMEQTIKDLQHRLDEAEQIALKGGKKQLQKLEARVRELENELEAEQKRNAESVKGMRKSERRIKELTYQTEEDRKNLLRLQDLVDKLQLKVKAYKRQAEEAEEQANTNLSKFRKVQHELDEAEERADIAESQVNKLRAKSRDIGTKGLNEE
Chain of Bovine cardiac myosin (P85100 whole entry partner): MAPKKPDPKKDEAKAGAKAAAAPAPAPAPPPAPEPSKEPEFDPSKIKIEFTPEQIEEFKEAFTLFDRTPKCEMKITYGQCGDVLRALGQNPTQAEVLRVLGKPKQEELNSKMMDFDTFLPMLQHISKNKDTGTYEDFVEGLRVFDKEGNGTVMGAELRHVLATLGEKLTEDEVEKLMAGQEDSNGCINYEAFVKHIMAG
Chain of Bovine cardiac myosin (Q3SZE5 whole entry partner): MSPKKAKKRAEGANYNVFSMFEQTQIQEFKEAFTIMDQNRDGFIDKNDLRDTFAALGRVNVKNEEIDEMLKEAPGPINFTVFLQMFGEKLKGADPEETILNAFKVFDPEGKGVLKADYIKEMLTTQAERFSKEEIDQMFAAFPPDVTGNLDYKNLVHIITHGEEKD

With `CCc1cc2c(s1)N=C1N(c3ccc4ccoc4c3)CC[C@@]1(O)C2=O` [BPN-0026749], on Bovine cardiac myosin, the “Ratio CMMII:NMII Ki/EC50” value was “NMII-sel”. Moreover, the inhibition constant (Ki) at Rabbit skeletal myosin amounted to 23 µM. Further, in data set [1], the “Photostability 4 hours” value was 87.8%, the “Photostability 24 hours” value is less than 5% and the “Photostability Dark (24 h)” value is reported as greater than 99%.

Take `CCc1cc2c(s1)N=C1N(c3ccc(Cl)cc3)CC[C@@]1(O)C2=O` [BPN-0026770]: the “Ratio CMMII:NMII Ki/EC50” value at Bovine cardiac myosin is given as “NMII-sel”. Further, at Rabbit skeletal myosin, the Ki is 1.5 µM. For the same compound, in data set [1], the “Photostability 4 hours” value is listed as greater than 99%, the “Photostability 24 hours” value turned out to be 92.9% and the “Photostability Dark (24 h)” value is reported as greater than 99%.

Regarding `CCc1cc2c(s1)N=C1N(c3ccc(C)cc3)CC[C@@]1(O)C2=O` [BPN-0026774], on Bovine cardiac myosin, the Ki turned out to be 8.9 µM and the “Ratio CMMII:NMII Ki/EC50” value is listed as 3.4. Further, the Ki on Rabbit skeletal myosin was 1.1 µM. In data set [1], the “Photostability 4 hours” value was determined as 86.7%, the “Photostability 24 hours” value is recorded as 18.1% and the “Photostability Dark (24 h)” value is recorded as greater than 99%.

For the compound `O=C1c2c(sc3ccccc23)N=C2N(c3ccccc3)CC[C@@]12O` [BPN-0026785], on Bovine cardiac myosin, the Ki turned out to be 23 µM and the “Ratio CMMII:NMII Ki/EC50” value is reported as 3.1. Also, the Ki on Rabbit skeletal myosin turned out to be 5.9 µM. In data set [1], the “Photostability 4 hours” value was 95.8%, the “Photostability 24 hours” value was determined as 59.3% and the “Photostability Dark (24 h)” value is on record as 91.6%.

Regarding `COc1ccc(N2CC[C@@]3(O)C(=O)c4c(sc(C)c4C)N=C23)cc1` [BPN-0026813], on Bovine cardiac myosin, the Ki is 1.6 µM and the “Ratio CMMII:NMII Ki/EC50” value is 3.1. For the same compound, the Ki on Rabbit skeletal myosin was found to be 0.11 µM. In addition, in data set [1], the “Photostability 4 hours” value was determined as 82.0%, the “Photostability 24 hours” value is less than 1% and the “Photostability Dark (24 h)” value is greater than 99%.

As to `Cc1sc2c(c1C)C(=O)[C@]1(O)CCN(c3ccc(Cl)cc3)C1=N2` [BPN-0026815], on Bovine cardiac myosin, the Ki stood at 2.8 µM and the “Ratio CMMII:NMII Ki/EC50” value is recorded as 3.6. Besides, the Ki at Rabbit skeletal myosin was determined as 0.27 µM. In addition, in data set [1], the “Photostability 4 hours” value stood at 91.2%, the “Photostability 24 hours” value is 88.2% and the “Photostability Dark (24 h)” value came to 90.2%.

On to `Cc1ccc(N2CC[C@@]3(O)C(=O)c4cc(C)c(C(F)(F)F)cc4N=C23)cc1` [BPN-0026819], for which, on Bovine cardiac myosin, the Ki amounted to 50 µM and the “Ratio CMMII:NMII Ki/EC50” value is on record as 27.8. The Ki on Rabbit skeletal myosin was 1.7 µM. For the same compound, in data set [1], the “Photostability 4 hours” value is recorded as 96.6%, the “Photostability 24 hours” value was determined as 84.8% and the “Photostability Dark (24 h)” value is listed as 97.3%.

For the compound `CCc1cc2c(s1)N=C1N(c3ccc(C#N)c(C)c3)CC[C@@]1(O)C2=O` [BPN-0026848], at Bovine cardiac myosin, the Ki is 320 µM and the “Ratio CMMII:NMII Ki/EC50” value worked out at 12.3. Also, on Rabbit skeletal myosin, the Ki turned out to be 61 µM. Also, in data set [1], the “Photostability 4 hours” value is reported as greater than 99%, the “Photostability 24 hours” value was 98.7% and the “Photostability Dark (24 h)” value is recorded as greater than 99%.

As to `COc1ccc(N2CC[C@@]3(O)C(=O)c4cc(C)c(C(F)(F)F)cc4N=C23)cc1` [BPN-0026849], at Bovine cardiac myosin, the Ki came to 16 µM and the “Ratio CMMII:NMII Ki/EC50” value turned out to be 16.0. In addition, the Ki at Rabbit skeletal myosin turned out to be 0.77 µM. Further, in data set [1], the “Photostability 4 hours” value is on record as 98.5%, the “Photostability 24 hours” value was 91.8% and the “Photostability Dark (24 h)” value was greater than 99%.

Take `Cc1cc2cc(N3CC[C@@]4(O)C(=O)c5cc(C)c(C)cc5N=C34)ccc2o1` [BPN-0026852]: at Bovine cardiac myosin, the Ki was determined as 25 µM and the “Ratio CMMII:NMII Ki/EC50” value was determined as 9.6. Further, on Rabbit skeletal myosin, the Ki is 5.6 µM. In data set [1], the “Photostability 4 hours” value is on record as 62.4%, the “Photostability 24 hours” value is given as 3.8% and the “Photostability Dark (24 h)” value turned out to be 85.1%.

Turning to `CCc1cc2c(s1)N=C1N(c3ccc(OC)cc3)CC[C@@]1(O)C2=O` [BPN-0026881], on Bovine cardiac myosin, the Ki was determined as 11 µM and the “Ratio CMMII:NMII Ki/EC50” value is given as 6.1. Also, the Ki on Rabbit skeletal myosin turned out to be 0.8 µM. In data set [1], the “Photostability 4 hours” value stood at 70.9%, the “Photostability 24 hours” value was 1.8% and the “Photostability Dark (24 h)” value is given as greater than 99%.
